Counter-ions that a name gives are not always drawn.
Each compound was assayed on HMOX1 (assay: HMOX1 Protein Assay (immunostaining of HO-1 in NHLF cells, GE InCell 1000)). Settings: Homo sapiens, fold change above DMSO treated cells, 3 μM compound (asterisk), 16 h.
Assay type: cell-based
Summary of the method: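 Fold induction of HO-1 over vehicle, normally at 5 μM compound (asterisk marks 3 μM), in 0.8% DMSO medium. Normal human lung fibroblasts were treated 16 h, then paraformaldehyde-fixed, anti-HO-1/Alexa 488 stained with Hoechst, and read by high-content imaging.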

Question: How did the fold induction at 3 µM turn out when `CO[C@@H]1CCN(C(=O)CNC(=O)c2ccc3c(c2)nc(Nc2nc4ccc(Cl)cc4s2)n3C)C1` [Example 408, 2-(6-Chloro-benzothiazol-2-ylamino)-1-methyl-1H-benzoimidazole-5-carboxylic acid [2-((R)-3-methoxy-pyrrolidin-1-yl)-2-oxo-ethyl]-amide] was run?
Answer: 25

Question: Which fold induction at 3 µM does the source give for `CO[C@H]1CCN(C(=O)CNC(=O)c2ccc3c(c2)nc(Nc2nc4ccc(Cl)cc4s2)n3C)C1` [Example 409, 2-(6-Chloro-benzothiazol-2-ylamino)-1-methyl-1H-benzoimidazole-5-carboxylic acid [2-((S)-3-methoxy-pyrrolidin-1-yl)-2-oxo-ethyl]-amide] here?
Answer: 29

Question: How did the fold induction at 3 µM turn out when `CO[C@H]1CCN(C(=O)CNC(=O)c2ccc3c(c2)nc(Nc2nc4ccc(C(F)(F)F)cc4s2)n3C)C1` [Example 410, 1-Methyl-2-(6-trifluoromethyl-benzothiazol-2-ylamino)-1H-benzoimidazole-5-carboxylic acid [2-((S)-3-methoxy-pyrrolidin-1-yl)-2-oxo-ethyl]-amide] was run?
Answer: 24.7

Same assay, conditions: Homo sapiens, fold change above DMSO treated cells, 5 μM compound, 16 h

Question: Which fold induction at 5 µM does the source give for `COCCn1c(Nc2nc3ccc(Cl)cc3s2)nc2cc(C(=O)NCC(=O)N3CC[C@@H](O)C3)ccc21` [Example 404, 2-(6-Chloro-benzothiazol-2-ylamino)-1-(2-methoxy-ethyl)-1H-benzoimidazole-5-carboxylic acid [2-((R)-3-hydroxy-pyrrolidin-1-yl)-2-oxo-ethyl]-amide] here?
Answer: 26.1

Question: For `COCCn1c(Nc2nc3ccc(Cl)cc3s2)nc2cc(C(=O)NCC(=O)N3CC[C@H](O)C3)ccc21` [Example 405, 2-(6-Chloro-benzothiazol-2-ylamino)-1-(2-methoxy-ethyl)-1H-benzoimidazole-5-carboxylic acid [2-((S)-3-hydroxy-pyrrolidin-1-yl)-2-oxo-ethyl]-amide], which fold induction at 5 µM is on record?
Answer: 21.4

Question: `Cn1c(Nc2nc3ccc(OC(F)(F)F)cc3s2)nc2cc(C(=O)NCC(=O)N3CCC[C@H]3CO)ccc21` [Example 406, 1-Methyl-2-(6-trifluoromethoxy-benzothiazol-2-ylamino)-1H-benzoimidazole-5-carboxylic acid [2-((S)-2-hydroxymethyl-pyrrolidin-1-yl)-2-oxo-ethyl]-amide] was tested. Which fold induction at 5 µM did it give?
Answer: 31

Question: `Cn1c(Nc2nc3ccc(OC(F)(F)F)cc3s2)nc2cc(C(=O)NCC(=O)N3C[C@H](O)[C@@H](O)C3)ccc21` [Example 407, 1-Methyl-2-(6-trifluoromethoxy-benzothiazol-2-ylamino)-1H-benzoimidazole-5-carboxylic acid [2-((3S,4S)-3,4-dihydroxy-pyrrolidin-1-yl)-2-oxo-ethyl]-amide] was tested. Which fold induction at 5 µM did it give?
Answer: 7.73

Question: Which fold induction at 5 µM does the source give for `Cn1c(Nc2nc3ccc(Cl)cc3s2)nc2cc(C(=O)NCC(=O)N3CC[C@H](N)C3)ccc21` [Example 411, 2-(6-Chloro-benzothiazol-2-ylamino)-1-methyl-1H-benzoimidazole-5-carboxylic acid [2-((S)-3-amino-pyrrolidin-1-yl)-2-oxo-ethyl]-amide hydrochloride] here?
Answer: 16

Question: How did the fold induction at 5 µM turn out when `Cn1c(Nc2nc3ccc(OC(F)(F)F)cc3s2)nc2cc(C(=O)NCC(=O)N3CC[C@H](N)C3)ccc21` [Example 412, 1-Methyl-2-(6-trifluoromethoxy-benzothiazol-2-ylamino)-1H-benzoimidazole-5-carboxylic acid [2-((S)-3-amino-pyrrolidin-1-yl)-2-oxo-ethyl]-amide hydrochloride] was run?
Answer: 47.6

Question: For `CN[C@@H]1CCN(C(=O)CNC(=O)c2ccc3c(c2)nc(Nc2nc4ccc(OC(F)(F)F)cc4s2)n3C)C1` [Example 413, 1-Methyl-2-(6-trifluoromethoxy-benzothiazol-2-ylamino)-1H-benzoimidazole-5-carboxylic acid [2-((R)-3-methylamino-pyrrolidin-1-yl)-2-oxo-ethyl]-amide hydrochloride], which fold induction at 5 µM is on record?
Answer: 31.8
